Common to all, as to parameters: species or system rat
In one experiment the test system is JNK. Briefly: JNK phosphorylation in hearts subjected to I/R (Western blot). How it is done: (§1) An ex vivo model of acute ischemic heart damage was used, which involves a 30 min equilibration period, followed by 30 min of global ischemia, which in turn is followed by 60 min of reperfusion. The hearts were perfused with 1 μM TAT or TAT-conjugated peptide. Normoxic control hearts were subjected to 90 min perfusion in the absence of ischemia. Coronary effluent was collected to determine creatine phosphokinase (CPK) release during the first 30 min of the reperfusion period. At the end of the reperfusion period, hearts were sliced into 1-mm-thick transverse sections and incubated in triphenyltetrazolium chloride solution (TTC, 1% in phosphate buffer, pH 7.4) at 37° C. for 15 min. Infarct size was expressed as a percentage of the risk zone (equivalent to total LV muscle mass) (methods described in Brandman et al., 2007, J. Biol. Chem., 282:4113-4123; Inagaki et al., 2003, Circulation, 108:869-875).
Rat hearts were homogenized in a buffer containing 210 mM mannitol, 70 mM sucrose, 5 mM MOPS and 1 mM EDTA followed by isolation of the mitochondria fraction (described in Churchill et al., 2008, J. Mol. Cell. Cardiol., 46:278-284) and identified by the presence of VDAC (MitoSciences, Eugene, Oreg., USA). The level of phosphorylated and unphosphorylated JNK1/2 was analyzed in the total fraction using respective specific antibodies (Cell Signaling, Danvers, Mass. and Santa Cruz Biotechnology, CA, USA).
First, I/R-induced infarct size after treatment with ΨPDK or δV1-1 (Inagaki et al., 2003, Circulation, 108:869-875), was smaller than that in hearts treated with the control peptide or with ΨδRACK, the δPKC-specific activator or with δV1-5 (FIG. 6A). Second, similar data were obtained when determining the levels of released creatine phosphokinase (CPK), as a marker of myocardial infarction; CPK levels in the ΨPDK- or δV1-1-treated hearts were similar and were lower than those after treatment with control peptide, ΨδRACK or δV1-5 (FIG. 6B).
To begin determining the contribution of each of the amino acids on the effect of the peptide, Alanine scanning was used (Brunel et al., 2006, J. Virol., 80:1680-1687; Chen et al., J. Pep. Res., 2000, 56:147-156; Brems et al., 1992, Prot. Eng., 5:527-533) (substituting individual amino acid with an alanine). The resultant ΨPDK peptide analogs were then used in the same model of myocardial infarction, using CPK release and JNK phosphorylation as markers for cardiac injury. CPI release into the perfusates and pJNK in the hearts were determined after I/R in the presence of respective peptides and compared to the levels in hearts subjected to I/R in the presence of the control peptide. None of the peptides having a substitution had any significant biological activity (Table 1).

For a further experiment, the system named is MARCKS. The experiment in a line: MARCKS phosphorylation in hearts subjected to I/R. As to conditions: vs control peptide. As to the method: as §1
In another experiment the test system is Drp1. The experiment in a line: Drp1 phosphorylation in hearts subjected to I/R. How it is done: as §1
The next experiment deals with PDK2. Briefly: 2-D IEF phosphorylation of PDK2 in hearts after I/R. As to conditions: cardiac I/R. How it is done: as §1, with “108:869-875). […]” for “108:869-875).”
(§2) As described above, δPKC phosphorylation of PDK following cardiac ischemia and reperfusion leads to the phosphorylation and a decline in the activity of pyruvate dehydrogenase (PDH) (Churchill et al., 2005, Circ. Res., 97:78-85). […] Since ΨPDK is derived from the PDK homologous sequence in δPKC, it was next determined whether PDK phosphorylation is affected by ΨPDK treatment.

Another experiment concerns E1 subunit of PDH. The experiment in a line: 2-D IEF phosphorylation of PDH E1 subunit in hearts after I/R. As to conditions: cardiac I/R. As to the method: as §1, with “108:869-875). […]” for “108:869-875).”
as §2

No end group written: not given here.

With “ALSTER (not fully specified (C-terminus); also: TAT47-57 conjugated via disulfide) [ΨPDK, for cells and hearts conjugated to TAT47-57 via disulfide bond]”, the “p-JNK/total JNK” value in the experiment with JNK (ex vivo I/R hearts, 1 μM peptide) is 0.4 ± 0.10. Besides, the “I/R-induced JNK phosphorylation (in words)” value with JNK (ex vivo I/R, vs δV1-5 and ΨδRACK) is given as “reduced I/R-induced JNK phosphorylation”. Also, the “I/R-induced MARCKS phosphorylation” value with MARCKS is “an increase in I/R-induced MARCKS phosphorylation”. Also, the Drp1 phosphorylation result in the experiment on Drp1 is recorded as “caused an increase of Drp1 phosphorylation”. Besides, in the experiment with PDK2, the “phosphorylation of PDK2” value is recorded as “did not occur”. In the experiment on E1 subunit of PDH, the “phosphorylation of E1 subunit of PDH” value is listed as “did not occur”.

Values taken from patent US10131691B2, “Compositions and methods for specific regulation of pyruvate dehydrogenase kinase” (THE BOARD OF TRUSTEES OF THE LELAND STANFORD JUNIOR …, priority 2011, dated 2018).
